In PMC9729294 (Scientific Reports, 2022):

Tests used:
[1] = test system: Candida albicans; assay: Antifungal disc diffusion, C. albicans; assay type: cell-based; conditions: Nil = zero inhibition
Description: (§1) The ligand and its metal(II) complexes were evaluated for antimicrobial activity against two strains, gram-positive bacteria (Staphylococcus aureus and Staphylococcus faecalis), gram-negative bacteria (Escherichia coli and Pseudomonas aeruginosa) and pathogenic fungi (Candida albicans), using DMSO as a negative control. […] The antimicrobial activity of the tested samples was determined using a modified Kirby-Bauer disc diffusion method. All the synthesized compounds were dissolved to prepare a stock solution of 1 mg/mL using DMSO. Stock solution was aseptically transferred, and two-fold diluted to have solutions of different concentrations. The antibacterial and antifungal activities of test compounds were done by filter paper disc method[21] and the activities were determined by measuring the diameters of the inhibition zone (mm). Media with DMF was set up as a control. All cultures were routinely maintained on NA (nutrient agar) and incubated at 37 °C. The inoculums of bacteria were performed by growing the culture in NA broth at 37 °C for overnight. Approximately, 0.1 mL of diluted bacterial or fungal culture suspension was spread with the help of spreader on NA plates uniformly. Solutions of the tested compounds and reference drugs were prepared by dissolving 10 mg of the compound in 10 mL DMF. […]

[2] = test system: red blood cell (RBC) membrane; assay: Membrane stabilization (antihemolytic) activity, hypotonic solution-induced RBC lysis; assay type: cell-based, human
Description: Anti-inflammatory activities were evaluated through the antihemolytic membrane stabilization effect of the ligand and its metal complexes using a red blood cell (RBC) membrane stabilization method. Fresh whole blood samples were collected in anticoagulant tubes from a healthy volunteer who was not treated with any nonsteroidal anti-inflammatory drugs (NSAIDs) for 2 weeks before the experiment. Erythrocytes were extracted by centrifugation at 3000 rpm for 5 min. The anticoagulated cells were washed 3 times with 0.9% saline and centrifuged at 3000 rpm for 10 min. An RBC suspension (40% v/v) was prepared using isotonic saline phosphate buffer (0.15 M NaCl and 10 mM sodium phosphate buffer, pH 7.4). One milliliter of phosphate buffer (0.15 M, pH 7.4) was added to one mL of various concentrations of the tested compounds (0.05, 0.1, 0.2, 0.3, 0.4 and 0.5 mg/mL DMSO) and 2 mL sodium chloride solution (0.25%). In the control tube, one distilled water was used instead of the tested compounds. Different concentrations of nonsteroidal anti-inflammatory drug (diclofenac potassium) were used as standards. Then, 100 µL of RBC suspension was added to each tube and incubated at room temperature for 60 min. After incubation, the samples were centrifuged for 10 min at 3000 rpm. The absorbance of the supernatant was detected at 540 nm using an ELISA reader. The inhibition of hemolysis in the samples was evaluated according to the equation: %Inhibition \, of \, hemolysis=A \, control-A \, sample/A \, control×100.

[3] = Reducing power assay (ferricyanide, absorbance at 700 nm); assay type: biochemical; conditions: Standard = ascorbic acid
Description: The reducing power capacity of the investigated compounds was evaluated by the method of Oyaizu[18]. Then, 0.5 mL of different concentrations ([…], 0.1, 0.2, 0.3, 0.4 and 0.5 mg/mL in DMSO) was added to 0.5 mL of sodium phosphate buffer (0.2 M, pH 6.6) and 0.5 mL of 1% potassium ferricyanide. The samples were incubated at 50 °C for 20 min. Then, 0.5 mL trichloroacetic acid (10%) was added and centrifuged at 3000 rpm for 15 min. The supernatant (1.0 mL) was incubated with 1.0 mL H2O2 and 0.2 mL of 1% ferric chloride for 30 min. The absorbance of the samples was measured at 700 nm. Ascorbic acid was used as a standard. An increase in the absorbance value indicates a higher reducing power.

[4] = test system: Acetylcholinesterase (AChE); assay: AChE inhibition (Ellman method, brain homogenate); assay type: biochemical; conditions: Standard = donepezil
Description: Acetylcholinesterase (AChE) activity was evaluated according to a previously reported method. Briefly, 10 μL of different concentrations of the tested compounds (test) or organic solvent (control) was added to 130 μL of phosphate buffer (pH 7.4, 0.1 M) and 20 μL of brain homogenate and then incubated at 37 °C for 45 min. Then, 5 μL of […] (75 mM) was added and incubated for 15 min at 37 °C. After incubation, […] of 0.32 mM DTNB was added. […] The percent inhibition of AChE was calculated as follows: %inhibition \, of \, […]=[A \, control--A \, sample/A \, control]×100.

[5] = test system: Staphylococcus aureus; assay: Antimicrobial disc diffusion, S. aureus; assay type: cell-based; conditions: Nil = zero inhibition
Description: as §1

[6] = DPPH radical scavenging assay; assay type: biochemical; conditions: for DPPH radical scavenging activity (% inhibition): Standard = ascorbic acid (vitamin C)
Description: The oxidative scavenging activity of the ligand and its complexes was evaluated by DPPH (4 mg/100 ml methanol) Zengin, et al.[16]. Briefly, equal volumes of different concentrations ([…], 0.1, 0.2, 0.3, 0.4 and 0.5 mg/mL DMSO) of the tested components were added to DPPH reagent using ascorbic acid as a reference. All the investigated tests were shaken and incubated at room temperature in the dark for 30 min. The decrease in DPPH radicals was evaluated at 490 nm using an ELISA reader. Each test was performed in triplicate. The radical scavenging power was estimated as a percentage of DPPH inhibition using the equation: %inhibition=[(A \, control-A \, sample)/A \, control]×100.

[7] = test system: Escherichia coli; assay: Antimicrobial disc diffusion, E. coli; assay type: cell-based; conditions: Nil = zero inhibition
Description: as §1

[8] = test system: Staphylococcus faecalis; assay: Antimicrobial disc diffusion, S. faecalis; assay type: cell-based; conditions: Nil = zero inhibition
Description: as §1

[9] = Nitric oxide scavenging assay (sodium nitroprusside / Griess reagent); assay type: biochemical; conditions: Standard = ascorbic acid
Description: The nitric oxide scavenging activity of the ligand and its complexes was evaluated following a reported procedure Padmaja, et al.[17]. […] The samples were added to 150 µL Griess reagent (1% sulfanilamide and 0.1% naphthyl ethylenediamine hydrochloride in 2.5% orthophosphoric acid) and incubated at 25 °C for 30 min. The absorbance (A) was read at 540 nm using an ELISA reader. The experiment was repeated in triplicate, and ascorbic acid was used as a standard. The scavenged activity of NO was calculated using the equation %inhibition=[(A \, control-A \, sample)/A \, control]×100.

[10] = test system: Pseudomonas aeruginosa; assay: Antimicrobial disc diffusion, P. aeruginosa; assay type: cell-based; conditions: Nil = zero inhibition
Description: as §1

[11] = Homo sapiens, Erythrocyte, read-out: Inhibition of RBC hemolysis (membrane stabilization)

C[C@@H]1[C@H](O)[C@@H](C)/C=C/C=C/C=C/C=C/C=C/C=C/C=C/[C@H](O[C@@H]2O[C@H](C)[C@@H](O)[C@H](N)[C@@H]2O)C[C@@H]2O[C@](O)(C[C@@H](O)C[C@@H](O)[C@H](O)CC[C@@H](O)C[C@@H](O)CC(=O)O[C@H]1C)C[C@H](O)[C@H]2C(=O)O [Amphotericin B, reference compound]
Inhibition zone diameter [1]: 20 mm/mg sample

Oc1ccc2ccccc2c1/C=N/c1ccc(Cc2ccc(/N=C/c3c(O)ccc4ccccc34)cc2)cc1 [Ligand]
inhibition at 50 µg/mL [2, 11]: 11.8 ± 1.01%
inhibition at 100 µg/mL [2, 11]: 19.8 ± 0.75%
inhibition at 200 µg/mL [2, 11]: 26.9 ± 0.44%
inhibition at 300 µg/mL [2, 11]: 32.7 ± 0.8%
inhibition at 400 µg/mL [2, 11]: 38.5 ± 1.16%
inhibition at 500 µg/mL [2, 11]: 43.4 ± 0.68%
Inhibition zone diameter [1]: Nil
Reducing power (absorbance at 700 nm) ([3]; 0.05 mg/mL): 0.10 ± 0.01
Reducing power (absorbance at 700 nm) ([3]; 0.1 mg/mL): 0.13 ± 0.001
Reducing power (absorbance at 700 nm) ([3]; 0.2 mg/mL): 0.17 ± 0.01
Reducing power (absorbance at 700 nm) ([3]; 0.3 mg/mL): 0.20 ± 0.01
Reducing power (absorbance at 700 nm) ([3]; 0.4 mg/mL): 0.23 ± 0.001
Reducing power (absorbance at 700 nm) ([3]; 0.5 mg/mL): 0.29 ± 0.01
AChE percent inhibition ([4]; 0.05 mg/mL): 17.70 ± 1.04%
AChE percent inhibition ([4]; 0.1 mg/mL): 21.83 ± 1.5%
AChE percent inhibition ([4]; 0.2 mg/mL): 27.27 ± 1.16%
AChE percent inhibition ([4]; 0.3 mg/mL): 32.90 ± 1.61%
AChE percent inhibition ([4]; 0.4 mg/mL): 38.57 ± 1.0%
AChE percent inhibition ([4]; 0.5 mg/mL): 41.97 ± 1.08%
Inhibition zone diameter [5]: Nil
DPPH radical scavenging activity (% inhibition) ([6]; 0.05 mg/mL): 11.5 ± 0.95%
DPPH radical scavenging activity (% inhibition) ([6]; 0.1 mg/mL): 17.53 ± 0.85%
DPPH radical scavenging activity (% inhibition) ([6]; 0.2 mg/mL): 25.33 ± 0.81%
DPPH radical scavenging activity (% inhibition) ([6]; 0.3 mg/mL): 31.13 ± 0.65%
DPPH radical scavenging activity (% inhibition) ([6]; 0.4 mg/mL): 38.83 ± 0.81%
DPPH radical scavenging activity (% inhibition) ([6]; 0.5 mg/mL): 44.43 ± 0.70%
Inhibition zone diameter [7]: Nil
Inhibition zone diameter [8]: Nil
NO scavenging (% inhibition) ([9]; 0.05 mg/mL): 15.8 ± 0.78%
NO scavenging (% inhibition) ([9]; 0.1 mg/mL): 21.37 ± 1.38%
NO scavenging (% inhibition) ([9]; 0.2 mg/mL): 27.13 ± 1.58%
NO scavenging (% inhibition) ([9]; 0.3 mg/mL): 37.27 ± 0.97%
NO scavenging (% inhibition) ([9]; 0.4 mg/mL): 42.7 ± 1.78%
NO scavenging (% inhibition) ([9]; 0.5 mg/mL): 47.65 ± 1.49%
Inhibition zone diameter [10]: Nil

CN(C)[C@@H]1C(O)=C(C(N)=O)C(=O)[C@@]2(O)C(O)=C3C(=O)c4c(O)cccc4[C@@](C)(O)[C@H]3C[C@@H]12 [Tetracycline, reference compound]
Inhibition zone diameter [5]: 32 mm/mg sample
Inhibition zone diameter [7]: 32 mm/mg sample
Inhibition zone diameter [8]: 33 mm/mg sample
Inhibition zone diameter [10]: 33 mm/mg sample

O=C1O[C@H]([C@@H](O)CO)C(O)=C1O [ascorbic acid, reference compound]
DPPH IC50 [6]: 145 µg/mL

O=C([O-])Cc1ccccc1Nc1c(Cl)cccc1Cl.[K+] [diclofenac potassium, reference compound]
Antihemolytic activity toward RBCs IC50 ([2]; hypotonic solution-induced lysis): 120 µg/mL
